Results on four compounds are retold here after article PMC7519074, “Polar functional group-containing glycolipid CD1d ligands modulate cytokine-biasing responses and prevent experimental colitis” (Scientific Reports, 2020).

Broadly, the solubility is the concentration that dissolves in the medium under given conditions. Broadly, the Cmax is the maximum level reached in the sampled fluid or tissue. As a reminder, the Tmax is the time at which the peak concentration occurs. The AUC is the area under the concentration-time curve, a measure of exposure.

In data set [1] the target is T1, mCD1d-Fc fusion protein (Mus musculus, UniProt P11609).
T1 construct: Ig (mouse immunoglobulin fusion partner); purchased BD Biosciences
T1 sequence (P11609 22-305 limits assumed): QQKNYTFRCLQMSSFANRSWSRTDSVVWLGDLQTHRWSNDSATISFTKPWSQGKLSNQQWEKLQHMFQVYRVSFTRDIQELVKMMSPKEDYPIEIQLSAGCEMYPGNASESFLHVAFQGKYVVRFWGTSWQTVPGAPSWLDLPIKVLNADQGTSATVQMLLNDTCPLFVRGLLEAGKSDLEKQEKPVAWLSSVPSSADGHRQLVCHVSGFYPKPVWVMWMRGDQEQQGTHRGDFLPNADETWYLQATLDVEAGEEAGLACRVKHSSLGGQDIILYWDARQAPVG
T1 sequence (P01887 21-119 partner): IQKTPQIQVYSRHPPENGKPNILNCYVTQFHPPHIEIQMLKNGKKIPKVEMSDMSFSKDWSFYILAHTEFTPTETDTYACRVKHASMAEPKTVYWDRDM
More on the design: method as in PMID 27648599. The settings on record: previously reported; cited from earlier work.

Data set [2] concerns DSS-induced colitis. The experiment in a line: DSS-induced colitis model of ulcerative colitis. Format: in vivo. To be noted: for DAI scores (disease activity index) versus PBS control / colon length (colon shortening) versus PBS control: 100 μg/kg ip on day 4, 2.0% DSS day 1-7, read on day 8. As for the experimental part: DSS treatment causes progressive weight loss, diarrhea and colon inflammation with a significant reduction in colon length, which leads to increases in the clinical scores of disease symptoms (DAI: disease activity index). C57BL/6 mice (n = 12 per group) were continuously treated with 2.0% DSS in their drinking water from day 1 to day 7. The mice were injected intraperitoneally with 100 μg/kg of the derivatives or PBS (control) on day 4. On day 8, the DAI scores and colon lengths of the mice administered the derivatives were compared with those of the mice administered PBS (control). […] Colon shortening is a feature of colon inflammation in the DSS-induced model. In the model, the colon length of healthy mice is about 8 cm (DSS (−)), whereas that of mice upon DSS treatment is about 4 cm (DSS + PBS) as shown in Fig. 7b. […] In this study, we selected the intraperitoneal injection as the administration method of lipid ligands, and used DAI scores and colon length to investigate the protective effects of derivatives against colitis. On the other hand, the difference in the administration method of immunomodulators, such as lipid ligands, might have a significant impact on their efficacy[46],[47]. In addition, the cytokine profiles in the colon upon ligand treatment could also provide useful information regarding their efficacy. Further research is currently being conducted into the effects of administration methods on efficacy and the examination of colon cytokine profiles.
The animal experiments using murine DSS model were conducted in accordance with the guidelines of Keio university institutional animal care and use committee. Specific pathogen-free C57BL/6 mice were purchased from Japan Clea (Tokyo, Japan). All mice were housed under specific pathogen-free conditions in microisolator cages in an animal facility, and male mice (7 weeks of age) were used. DSS (dextran sulfate sodium) was added to the water supply provided to the animals at a concentration of 2.0% (wt/vol) for days 1–7. Derivatives 2 and 3 were first dissolved in DMSO at 100 μg/mL and then diluted in PBS solution. The derivatives (100 μg/kg in 200 μL of solution) were injected intraperitoneally on day 4 after the induction of colitis. Control animals received 200 μL of PBS solution containing the same concentration of DMSO. Mice were sacrificed on day 8 after DSS administration. Intestinal tissues were removed and opened longitudinally. The length of the colon was measured after exclusion of cecum. The disease activity index (DAI), defined as stool blood, stool form and weight loss, and the length of the colon were used to analyze the therapeutic benefits of derivatives 2 and 3.

Data set [3] can be described thus: Metabolic stability, human liver microsome. The settings on record: for half-life: liver microsomes, read-out: metabolic stability (liver microsome, T1/2) human. Format: in vitro ADME. (Microsomes from liver hold many membrane-bound enzymes, among them those of drug oxidation.)
For another data set, the system named is mouse splenocytes. The experiment in a line: Cytokine secretion assay using mouse splenocyte. Format: cell-based, C57BL/6 mice. More on the design: IFN-γ production / IL-4 production / IL-17A production: unit not given here. The settings on record: for IFN-γ production / IL-17A production / IL-4 production: 1 nM ligand, 48 h; for IFN-γ production: Fig. S2a; for IL-17A production: Fig. S2c; for Relative ratio IL-4/IFN-γ of cytokine production compared to α-GalCer / Relative ratio IL-17A/IFN-γ of cytokine production compared to α-GalCer: 1 nM; for Relative ratio IL-4/IFN-γ of cytokine production compared to α-GalCer: Fig. 5a; for Relative ratio IL-17A/IFN-γ of cytokine production compared to α-GalCer: Fig. 5b; for cytokine polarization in words: from relative ratios, Fig. 5; for IL-4 production: Fig. S2b. As for the experimental part: Spleen cell suspensions (from C57BL/6 mice) were prepared in complete medium (RPMI 1,640 media supplemented with 10% FBS and 1% penicillin–streptomycin) and seeded into 96-well plates (6.0 × 10^5 cells/well). Lipid ligands were added, and the mixture were incubated at 37 °C for 48 h. IFN-γ, IL-4 and IL-17A release were measured with an ELISA kit (Affymetrix).

A short description of the next data set: Water solubility. It is filed as physicochemical.
Data set [4] can be described thus: Plasma pharmacokinetic profile in mice after ip dosing. It is filed as in vivo, C57BL/6J mice. The settings on record: male, C57BL/6, mouse, 100 ug/kg, 100 μg/kg ip, mice n = 6. As for the experimental part:
The pharmacokinetic study was approved by The Institutional Animal Care and Use Committee of Ono Pharmaceutical Co., Ltd. and was performed in accordance with the ethics criteria contained in the animal welfare bylaws of the Committee. The pharmacokinetics of 3 were studied following intraperitoneal administration. The 10 μg/mL dosing solution, which contained DMSO/Phosphate buffered saline = 1/9, was administered intraperitoneally to six male C57BL/6 mice (Charles River Laboratories, Japan, Inc.). Blood samples were collected into heparinized syringes at designated times and centrifuged to obtain the plasma samples. The plasma samples were assayed after protein precipitation by acetonitrile/ethanol (70/30, v/v), followed by HPLC/MS/MS analysis. Plasma concentration–time data were analyzed by noncompartmental methods.

A short description of data set [5]: Metabolic stability, rat liver microsome. Format: in vitro ADME. The settings on record: for half-life: liver microsomes, read-out: metabolic stability (liver microsome, T1/2) rat.
Data set [6] relates to DSS-induced colitis. More on the design: method as in PMID 15674111. The settings on record: cited from earlier work.
Data set [7] deals with T1, mCD1d-Fc fusion protein. Description: Antigen presenting cell (APC)-free assay for lipid binding to mCD1d-Fc; IL-2 release by 2E10 NKT hybridoma cells. The settings on record: ligand 100 nM; mean ± SEM; Fig. 3c, d. More on the design: unit not given here. It is filed as cell-based. As for the experimental part: NKT hybridoma 2E10 cells were cultured in RPMI-1640 (NACALAI TESQUE, INC) supplemented with 10% fetal bovine serum (FBS; Biowest), and 1% penicillin–streptomycin (Gibco).
For this assay, 96-well microplates (Bio-one 96-well cell culture plate, Greiner) were coated with mouse CD1d:Ig Fusion protein (BD Biosciences) (0.25 μg/well) in PBS at 37 °C for 24 h. […] After washing, 2E10 NKT hybridoma cells (2.5 × 10^5 cells/well) were added and cultured at 37 °C for 48 h. IL-2 release was measured with an ELISA kit (Affymetrix).

[8] abbreviates: Table S1, dash = below the detection limit (< 5 μM) according to b25.

≈ marks a conversion by molar mass, not a printed value. Entries after “also recorded” stand apart in the source; their conditions may differ.

`CCCCCCCCCCCCCC[C@@H](O)[C@@H](O)[C@H](CO[C@H]1O[C@H](CO)[C@H](O)[C@H](O)[C@H]1O)NC(=O)CCCCCCCCCCCNC(=O)c1ccccc1` [compound 3]: the “cytokine production / agonistic activity relative to α-GalCer, in words” value at mCD1d-Fc fusion protein [1] is “higher levels of cytokine production relative to that caused by α-GalCer; also recorded: higher agonistic activity than α-GalCer”. For the same compound, in the data set with DSS-induced colitis [2], the “DAI scores (disease activity index) versus PBS control” value is listed as “significant improvement in the DAI scores” and the “colon length (colon shortening) versus PBS control” value was “significantly prevented the colon shortening”. In [3], the “metabolic stability in words” value was “suboptimal metabolic property for human liver microsome” and the half-life is < 0.25 h. Also, in the data set on mouse splenocytes, the IFN-γ production worked out at 514 ± 79, the IL-17A production amounted to 1651 ± 127, the “Relative ratio IL-4/IFN-γ of cytokine production compared to α-GalCer” value was 10.2 ± 1.6 and the “Relative ratio IL-17A/IFN-γ of cytokine production compared to α-GalCer” value is given as 18.0 ± 1.7. In the data set on mouse splenocytes, the “cytokine polarization in words” value was “IL-4- and IL-17A-biasing properties”. This compound also had a solubility in “Water solubility” (detection limit 5 μM) of 7.2 µM (≈ 5.62 µg/mL). Further, in data set [4], the Cmax came out at 92.8 ng/mL, the Tmax was found to be 1 h and the half-life is 5.2 h. The same compound gave an AUC in data set [4] (ip) of 466 ng·h/mL. Besides, in data set [5], the “metabolic stability in words” value is “resistant to rat microsomal metabolism” and the half-life was 2.82 h.
In the case of `CCCCCCCCCCCCCCCCCCCCCCCC(=O)N[C@@H](COC1OC(CO)C(O)C(O)C1O)[C@H](O)[C@H](O)CCCCC` (stereo partly drawn) [OCH], the “efficacy in the murine DSS model, in words” value in the data set with DSS-induced colitis [6] is recorded as “effective in the murine DSS model”.
For the compound `CCCCCCCCCCCCCC[C@@H](O)[C@@H](O)[C@H](CO[C@H]1O[C@H](CO)[C@H](O)[C@H](O)[C@H]1O)NC(=O)CCCCCCCCCCCNC(=O)CCCCCCCNC(=O)CC` [compound 2], on mCD1d-Fc fusion protein [1], the “cytokine production / agonistic activity relative to α-GalCer, in words” value is “higher levels of cytokine production relative to that caused by α-GalCer”. Also, the “mice died by day 8” value in the data set on DSS-induced colitis [2] (100 μg/kg ip on day 4, 2.0% DSS day 1-7, n = 12 per group) is “Two out of twelve”. Besides, in the data set with DSS-induced colitis [2], the “DAI scores (disease activity index) versus PBS control” value was “did not significantly alter the DAI scores” and the “colon length (colon shortening) versus PBS control” value is given as “significantly prevented the colon shortening”. The half-life in data set [3] was < 0.25 h. In addition, in the data set on mouse splenocytes, the IFN-γ production was 9,467 ± 362, the IL-4 production amounted to 593 ± 65, the IL-17A production is on record as 5,179 ± 154 and the “Relative ratio IL-4/IFN-γ of cytokine production compared to α-GalCer” value was 3.15 ± 0.46. Further, in the data set with mouse splenocytes, the “Relative ratio IL-17A/IFN-γ of cytokine production compared to α-GalCer” value is 2.98 ± 0.03 and the “cytokine polarization in words” value is on record as “relatively less selective cytokine responses”. Besides, the solubility in “Water solubility” (setting [8]) is < 5 µM. In [5], the “metabolic stability in words” value was “resistant to rat microsomal metabolism” and the half-life is 1.07 h.
As to `CCCCCCCCCCCCCCCCCCCCCCCCCC(=O)N[C@@H](CO[C@H]1O[C@H](CO)[C@H](O)[C@H](O)[C@H]1O)[C@H](O)[C@H](O)CCCCCCCCCCCCCC` [α-GalCer, α-galactosyl ceramide, reference compound], the “efficacy in the murine DSS model, in words” value with DSS-induced colitis [6] is “effective in the murine DSS model”. In the data set on mouse splenocytes, the IFN-γ production is reported as 12,297 ± 61, the IL-4 production came to 247 ± 14 and the IL-17A production is 2,258 ± 242. The solubility in “Water solubility” (setting [8]) was < 5 µM. For the same compound, the solubility in “Water solubility” (detection limit 5 μM) was < 5 µM. For the same compound, the IL-2 production at mCD1d-Fc fusion protein [7] turned out to be 274 ± 53.
